Tests used:
Test in all cases: relative viability (nuclei count vs DMSO), 5 days (fraction); higher = more cells survive
Cediranib + Dasatinib = compound: COc1cc2c(Oc3ccc4[nH]c(C)cc4c3F)ncnc2cc1OCCCN1CCCC1 [Cediranib] + Cc1nc(Nc2ncc(C(=O)Nc3c(C)cccc3Cl)s2)cc(N2CCN(CCO)CC2)n1 [Dasatinib] (partner 0.075 µM)
Outline: (§1)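 Medians of duplicate plates are given as relative viability. That measure is the nuclei count in treated wells divided by the count in vehicle wells. Counts were taken on 4× images of lung cancer cell lines in 1536-well plates, 5 days after pin-tool dosing the day after seeding with one drug alone or a fixed anchor-drug dose plus five library-drug doses (not always all listed) in √10 steps.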

Decitabine + Pemetrexed = compound: Nc1ncn([C@H]2C[C@H](O)[C@@H](CO)O2)c(=O)n1 [Decitabine] + Nc1nc2[nH]cc(CCc3ccc(C(=O)N[C@@H](CCC(=O)O)C(=O)O)cc3)c2c(=O)[nH]1 [Pemetrexed] (partner 0.2 µM)
Outline: as §1

Decitabine + Luminespib = compound: Nc1ncn([C@H]2C[C@H](O)[C@@H](CO)O2)c(=O)n1 [Decitabine] + CCNC(=O)c1noc(-c2cc(C(C)C)c(O)cc2O)c1-c1ccc(CN2CCOCC2)cc1 [Luminespib] (partner 0.01 µM)
Outline: as §1

Cediranib + Vorinostat = compound: COc1cc2c(Oc3ccc4[nH]c(C)cc4c3F)ncnc2cc1OCCCN1CCCC1 [Cediranib] + O=C(CCCCCCC(=O)Nc1ccccc1)NO [Vorinostat] (partner 1 µM)
Outline: as §1

Cell Line: LCLC-103H
- relative viability (Cediranib + Dasatinib; first compound 0.04 µM): 0.594
- relative viability (Cediranib + Dasatinib; first compound 0.1265 µM): 0.578
- relative viability (Cediranib + Dasatinib; first compound 0.4 µM): 0.413
- relative viability (Cediranib + Dasatinib; first compound 1.265 µM): 0.511
- relative viability (Cediranib + Dasatinib; first compound 4 µM): 0.5
- relative viability (Decitabine + Pemetrexed; first compound 0.04 µM): 0.426
- relative viability (Decitabine + Pemetrexed; first compound 0.1265 µM): 0.362
- relative viability (Decitabine + Pemetrexed; first compound 0.4 µM): 0.284
- relative viability (Decitabine + Pemetrexed; first compound 1.265 µM): 0.379
- relative viability (Decitabine + Pemetrexed; first compound 4 µM): 0.333
- relative viability (Decitabine + Luminespib; first compound 0.04 µM): 0.863
- relative viability (Decitabine + Luminespib; first compound 0.1265 µM): 0.829
- relative viability (Decitabine + Luminespib; first compound 0.4 µM): 0.685
- relative viability (Decitabine + Luminespib; first compound 1.265 µM): 0.594
- relative viability (Decitabine + Luminespib; first compound 4 µM): 0.472
- relative viability (Cediranib + Vorinostat; first compound 0.04 µM): 0.824
- relative viability (Cediranib + Vorinostat; first compound 0.1265 µM): 0.572
- relative viability (Cediranib + Vorinostat; first compound 0.4 µM): 0.767
- relative viability (Cediranib + Vorinostat; first compound 1.265 µM): 0.78
- relative viability (Cediranib + Vorinostat; first compound 4 µM): 0.898

Cell Line: LK-2
- relative viability (Cediranib + Dasatinib; first compound 0.04 µM): 0.283
- relative viability (Cediranib + Dasatinib; first compound 0.1265 µM): 0.224
- relative viability (Cediranib + Dasatinib; first compound 0.4 µM): 0.331
- relative viability (Cediranib + Dasatinib; first compound 1.265 µM): 0.212
- relative viability (Cediranib + Dasatinib; first compound 4 µM): 0.262
- relative viability (Decitabine + Pemetrexed; first compound 0.04 µM): 0.194
- relative viability (Decitabine + Pemetrexed; first compound 0.1265 µM): 0.256
- relative viability (Decitabine + Pemetrexed; first compound 0.4 µM): 0.223
- relative viability (Decitabine + Pemetrexed; first compound 1.265 µM): 0.245
- relative viability (Decitabine + Pemetrexed; first compound 4 µM): 0.211
- relative viability (Decitabine + Luminespib; first compound 0.04 µM): 0.196
- relative viability (Decitabine + Luminespib; first compound 0.1265 µM): 0.193
- relative viability (Decitabine + Luminespib; first compound 0.4 µM): 0.156
- relative viability (Decitabine + Luminespib; first compound 1.265 µM): 0.214
- relative viability (Decitabine + Luminespib; first compound 4 µM): 0.17
- relative viability (Cediranib + Vorinostat; first compound 0.04 µM): 0.352
- relative viability (Cediranib + Vorinostat; first compound 0.1265 µM): 0.332
- relative viability (Cediranib + Vorinostat; first compound 0.4 µM): 0.421
- relative viability (Cediranib + Vorinostat; first compound 1.265 µM): 0.353
- relative viability (Cediranib + Vorinostat; first compound 4 µM): 0.279

Cell Line: LOU-NH91
- relative viability (Cediranib + Dasatinib; first compound 0.04 µM): 0.522
- relative viability (Cediranib + Dasatinib; first compound 0.1265 µM): 0.78
- relative viability (Cediranib + Dasatinib; first compound 0.4 µM): 0.51
- relative viability (Cediranib + Dasatinib; first compound 1.265 µM): 0.495
- relative viability (Cediranib + Dasatinib; first compound 4 µM): 0.552
- relative viability (Decitabine + Pemetrexed; first compound 0.04 µM): 0.378
- relative viability (Decitabine + Pemetrexed; first compound 0.1265 µM): 0.358
- relative viability (Decitabine + Pemetrexed; first compound 0.4 µM): 0.422
- relative viability (Decitabine + Pemetrexed; first compound 1.265 µM): 0.336
- relative viability (Decitabine + Pemetrexed; first compound 4 µM): 0.397
- relative viability (Decitabine + Luminespib; first compound 0.04 µM): 0.323
- relative viability (Decitabine + Luminespib; first compound 0.1265 µM): 0.344
- relative viability (Decitabine + Luminespib; first compound 0.4 µM): 0.358
- relative viability (Decitabine + Luminespib; first compound 1.265 µM): 0.299
- relative viability (Decitabine + Luminespib; first compound 4 µM): 0.35
- relative viability (Cediranib + Vorinostat; first compound 0.04 µM): 0.898
- relative viability (Cediranib + Vorinostat; first compound 0.1265 µM): 0.696
- relative viability (Cediranib + Vorinostat; first compound 0.4 µM): 0.873
- relative viability (Cediranib + Vorinostat; first compound 1.265 µM): 0.823
- relative viability (Cediranib + Vorinostat; first compound 4 µM): 0.857

Cell Line: LU99A
- relative viability (Cediranib + Dasatinib; first compound 0.04 µM): 0.504
- relative viability (Cediranib + Dasatinib; first compound 0.1265 µM): 0.465
- relative viability (Cediranib + Dasatinib; first compound 0.4 µM): 0.513
- relative viability (Cediranib + Dasatinib; first compound 1.265 µM): 0.433
- relative viability (Cediranib + Dasatinib; first compound 4 µM): 0.655
- relative viability (Decitabine + Pemetrexed; first compound 0.04 µM): 0.149
- relative viability (Decitabine + Pemetrexed; first compound 0.1265 µM): 0.157
- relative viability (Decitabine + Pemetrexed; first compound 0.4 µM): 0.182
- relative viability (Decitabine + Pemetrexed; first compound 1.265 µM): 0.202
- relative viability (Decitabine + Pemetrexed; first compound 4 µM): 0.167
- relative viability (Decitabine + Luminespib; first compound 0.04 µM): 0.248
- relative viability (Decitabine + Luminespib; first compound 0.1265 µM): 0.24
- relative viability (Decitabine + Luminespib; first compound 0.4 µM): 0.318
- relative viability (Decitabine + Luminespib; first compound 1.265 µM): 0.251
- relative viability (Decitabine + Luminespib; first compound 4 µM): 0.24
- relative viability (Cediranib + Vorinostat; first compound 0.04 µM): 0.456
- relative viability (Cediranib + Vorinostat; first compound 0.4 µM): 0.51
- relative viability (Cediranib + Vorinostat; first compound 1.265 µM): 0.407
- relative viability (Cediranib + Vorinostat; first compound 4 µM): 0.578

Cell Line: NCI-H727
- relative viability (Cediranib + Dasatinib; first compound 0.4 µM): 0.358
- relative viability (Cediranib + Dasatinib; first compound 1.265 µM): 0.337
- relative viability (Cediranib + Dasatinib; first compound 4 µM): 0.367
- relative viability (Decitabine + Luminespib; first compound 0.04 µM): 0.499
- relative viability (Decitabine + Luminespib; first compound 0.1265 µM): 0.289
- relative viability (Decitabine + Luminespib; first compound 0.4 µM): 0.339
- relative viability (Decitabine + Luminespib; first compound 1.265 µM): 0.288
- relative viability (Decitabine + Luminespib; first compound 4 µM): 0.407
- relative viability (Cediranib + Vorinostat; first compound 0.04 µM): 0.934
- relative viability (Cediranib + Vorinostat; first compound 0.1265 µM): 0.913
- relative viability (Cediranib + Vorinostat; first compound 0.4 µM): 1.08
- relative viability (Cediranib + Vorinostat; first compound 1.265 µM): 1.21
- relative viability (Cediranib + Vorinostat; first compound 4 µM): 1.27

Cell Line: NCI-H1563
- relative viability (Cediranib + Dasatinib; first compound 0.04 µM): 0.494
- relative viability (Cediranib + Dasatinib; first compound 0.1265 µM): 0.897
- relative viability (Cediranib + Dasatinib; first compound 0.4 µM): 0.498
- relative viability (Cediranib + Dasatinib; first compound 1.265 µM): 0.513
- relative viability (Cediranib + Dasatinib; first compound 4 µM): 0.492
- relative viability (Decitabine + Pemetrexed; first compound 0.04 µM): 0.791
- relative viability (Decitabine + Pemetrexed; first compound 0.1265 µM): 0.899
- relative viability (Decitabine + Pemetrexed; first compound 0.4 µM): 1.43
- relative viability (Decitabine + Pemetrexed; first compound 1.265 µM): 0.751
- relative viability (Decitabine + Pemetrexed; first compound 4 µM): 0.858
- relative viability (Decitabine + Luminespib; first compound 0.04 µM): 0.564
- relative viability (Decitabine + Luminespib; first compound 0.1265 µM): 0.508
- relative viability (Decitabine + Luminespib; first compound 0.4 µM): 0.428
- relative viability (Decitabine + Luminespib; first compound 1.265 µM): 0.545
- relative viability (Decitabine + Luminespib; first compound 4 µM): 0.495

Cell Line: NCI-H1623
- relative viability (Cediranib + Dasatinib; first compound 0.04 µM): 0.618
- relative viability (Cediranib + Dasatinib; first compound 0.4 µM): 0.523
- relative viability (Cediranib + Dasatinib; first compound 1.265 µM): 0.463
- relative viability (Cediranib + Dasatinib; first compound 4 µM): 0.536
- relative viability (Decitabine + Luminespib; first compound 0.04 µM): 0.51
- relative viability (Decitabine + Luminespib; first compound 0.1265 µM): 0.475
- relative viability (Decitabine + Luminespib; first compound 0.4 µM): 0.504
- relative viability (Decitabine + Luminespib; first compound 1.265 µM): 0.427
- relative viability (Decitabine + Luminespib; first compound 4 µM): 0.434

Cell Line: NCI-H1648
- relative viability (Decitabine + Pemetrexed; first compound 0.04 µM): 0.637
- relative viability (Decitabine + Pemetrexed; first compound 0.1265 µM): 0.582
- relative viability (Decitabine + Pemetrexed; first compound 0.4 µM): 0.506
- relative viability (Decitabine + Pemetrexed; first compound 1.265 µM): 0.483
- relative viability (Decitabine + Pemetrexed; first compound 4 µM): 0.435
- relative viability (Cediranib + Vorinostat; first compound 0.04 µM): 0.569
- relative viability (Cediranib + Vorinostat; first compound 0.1265 µM): 0.474
- relative viability (Cediranib + Vorinostat; first compound 0.4 µM): 0.511
- relative viability (Cediranib + Vorinostat; first compound 1.265 µM): 0.271
- relative viability (Cediranib + Vorinostat; first compound 4 µM): 0.425

Cell Line: NCI-H1792
- relative viability (Cediranib + Dasatinib; first compound 0.04 µM): 0.823
- relative viability (Cediranib + Dasatinib; first compound 0.1265 µM): 0.872
- relative viability (Cediranib + Dasatinib; first compound 0.4 µM): 0.557
- relative viability (Cediranib + Dasatinib; first compound 1.265 µM): 0.923
- relative viability (Cediranib + Dasatinib; first compound 4 µM): 0.957
- relative viability (Decitabine + Pemetrexed; first compound 0.04 µM): 0.715
- relative viability (Decitabine + Pemetrexed; first compound 0.1265 µM): 0.894
- relative viability (Decitabine + Pemetrexed; first compound 0.4 µM): 0.587
- relative viability (Decitabine + Pemetrexed; first compound 1.265 µM): 0.309
- relative viability (Decitabine + Pemetrexed; first compound 4 µM): 0.255
- relative viability (Decitabine + Luminespib; first compound 0.04 µM): 0.565
- relative viability (Decitabine + Luminespib; first compound 0.1265 µM): 0.446
- relative viability (Decitabine + Luminespib; first compound 0.4 µM): 0.465
- relative viability (Decitabine + Luminespib; first compound 1.265 µM): 0.428
- relative viability (Decitabine + Luminespib; first compound 4 µM): 0.311

— the supplement of paper PMC10307832
